Source: patent US11859169B2, “Nano-ligand for promoting cell adhesion and regeneration of macrophages and method of promoting cell adhesion and regeneration of macrophages by using the same” (Korea University Research and Business Foundation, priority 2020, dated 2024)

System: Macrophages (RAW 264.7)
Assay: adhesion structure assembly-mediated M2 phenotype under ROCK, myosin II or actin polymerization inhibition
Type: cell-based
Details: M2-polarizing medium; for reduction of Arg-1 immunofluorescence on the magnet side / reduction of adherent macrophage area on the magnet side / reduction of adherent macrophage aspect ratio on the magnet side: 36 hours, 50 μM Y27632, 10 μM blebbistatin

SMILES	reduction of Arg-1 immunofluorescence on the magnet side [%]	reduction of adherent macrophage area on the magnet side [%]	reduction of adherent macrophage aspect ratio on the magnet side [%]	decreases in the area, aspect ratio, and Arg-1 fluorescence of the adherent macrophages (2 μg/mL cytochalasin D)
C[C@@H](N)[C@H]1CC[C@H](C(=O)Nc2ccncc2)CC1 [Y27632]	29	32	33	–
C=C1[C@@H](C)[C@H]2[C@H](Cc3ccccc3)NC(=O)[C@]23[C@H](OC(C)=O)/C=C/[C@@](C)(O)C(=O)[C@@H](C)C/C=C/[C@H]3[C@@H]1O [cytochalasin D]	–	–	–	clearly observed
Cc1ccc2c(c1)C(=O)C1(O)CCN(c3ccccc3)C1=N2 (stereo not shown) [blebbistatin]	29	33	31	–
